The values that follow come from patent publication US4593019A, “N^6 -tricyclic adenosines” (Warner-Lambert Company, priority 1984, dated 1986).

The nature of series [1]: Antihypertensive evaluation (AHP3): direct monitoring of aortic blood pressure and heart rate in conscious rats. The series is classed as in vivo. To be noted: 10 mg/kg, conscious rat. The procedure: This test procedure is described in the following paragraphs.
The continuous monitoring of pulsatile blood pressure (BP) from unrestrained conscious rats surgically equipped with polyethylene cannulas was accomplished by means of a computer assisted data capture scheme (CADCS). The basic elements of the methodology are the cannulation procedure and the CADCS.
Cannulation Procedure: Rats were anesthetized with Telazol (1:1 tiletamine HCl and zolazepam HCl); 20-40 mg/kg IM and the descending aorta exposed via a midline incision. Cannulas fabricated from polyethylene tubing were inserted into the aorta via an undersized puncture hole below the renal arteries. The puncture hole was made by a 23 G disposable needle with a section of the aorta clamped off above and below the puncture site. The cannulas, consisting of a PE100 (0.86 mm ID) body and a PE50 (0.58 mm ID) tip, were attached to a trocar, inserted through the psoas muscle, and passed subcutaneously along the midline of the back and externalized between the ears. The cannulas were anchored to the psoas muscle and between the scalulae (3-0 green braided suture). The midline incision was closed in two steps (muscle first, skin second) using continuous over-and over sutures (4-0 chronic). Each rat was then given penicillin 30,000 units subcutaneously (Penicillin G Procaine Sterile Suspension).
The rats were fitted with a harness-spring-swivel assembly designed to protect the cannula and to provide the rat relative freedom of movement. The harnesses were fabricated from nylon hook and loop tape cemented to a metal plate to which spring wires (18-8 stainless steel), were attached to brass swivels. […] While on test, each rat received a continuous slow infusion of heparinized saline solution (approximately […] or 40 units of heparin per 24 hour period) to prevent clot formation. Additional "flushes" of the cannula with heparinized saline were carried out when the aortic pulse pressure (systolic minus diastolic) was less than 25 mm Hg.
CADCS: The pulsatile blood pressure and heart rate of each of 32 rats was monitored every minute by means of two in-laboratory microcomputers communicating directly with a data concentrator computer. The data were first stored on the data concentrator disk and then transferred to a magnetic tape for analysis and report generation by the main research computer. The overall scheme involved modulating the primary signal from the pressure transducer, generating the primary data set of the one-minute values for systolic, diastolic, and mean blood pressures and heart rate by the in-lab microcomputer and the storage, analysis, and report generation by the main reserach computer.
The transducers were connected to analog signal conditioning modules. The modules provided a regulated excitation voltage for the transducers, amplification as required to interface the microprocessors and an active low pass filter to compensate for the pressure wave form distortion produced by the flexible, fluid filled, narrow cannula.
The microcomputers (one for each of two groups of 16 rats) were connected to the input components through the module interface units, an analog-to-digital converter for the pressure wave form signal and the digital inputs for the dose and event marker switches. The microcomputer controlled the sequential acquisition of data from the modular interface units through an internal synchronous time-of-day clock/time base generator. Utilizing the time base generator as a reference, the blood pressure values and the marker switch status for each of the 32 stations were sampled every ten msec. The microcomputer processed each blood pressure sample as it was received to produce "running average" values for heart rate, and mean, systolic and diastolic blood pressures.

In series [2] the test system is mice. The series is described as follows: Mouse Activity and Screen Test Procedure (MAST): screen test failure. The format is in vivo, mouse (male Swiss-Webster). Particulars: one hour postinjection. An excerpt: The compounds of the invention are new chemical substances which are useful as pharmaceutical agents for the treatment of psychoses. The antipsychotic activity of representative compounds of the invention was established by the Mouse Activity and Screen Test Procedure (MAST) described below.
Nine unfasted Swiss-Webster male mice weighing 20-30 g are equally divided into three groups for each drug dose to be tested. That is, data for each dose level was generated by three separate groups of three mice each.
A minimum of three dose levels (10, 30, and 100 mg/kg) are tested for each drug. Treatments are administered intraperitoneally one hour prior to testing. All dosages are calculated as parent compound and given in volumes of 10 ml/kg. Compounds are dissolved or suspended in 0.2% Methocel. Control animals are injected with Methocel.
A two part testing procedure is started one hour postinjection. First, the screen test (ST) is performed (see Pharmac. Biochem. Behav. 6, 351-353, 1977). Briefly this test consists of placing mice on individual wire screens which are then rotated 180 degrees at the start of a 60 second observation period. The number of mice falling off the inverted screen is recorded.
The data obtained from the screen test are expressed as percent of mice falling off the screen. Data derived from locomotor activity of drug treated mice are compared to the activity of vehicle treated animals and are expressed as percent inhibition of spontaneous locomotion. All percentages reported for inhibition of locomotion (LI) are based upon data accumulated for one hour. Both phases of testing are graded: A=60-100%; C=31-59%; and N=0-30%. An overall dose rating is obtained by the following criteria: […]

For `OC[C@H]1O[C@@H](n2cnc3c(NCC4c5ccccc5Oc5ccccc54)ncnc32)[C@H](O)[C@@H]1O` [Example 4, N^6-[Xanthene-9-methylamino]adenosine], the “HR ↑ (increase in heart rate)” value in series [1] (1 hour) was found to be 16%; in series [1] (3 hours), 19%; in series [1] (5 hours), 25%; in series [1] (7 hours) it was 15%; in series [1] (9 hours), 18%. Further, the “MAP ↓ (decrease in mean arterial blood pressure)” value in series [1] (1 hour) amounted to 11%; in series [1] (3 hours) it was 4%; in series [1] (5 hours), 8%; in series [1] (7 hours) it was 12%; in series [1] (9 hours), 8%. Further, the “Screen Test Failure (percent of mice falling off the screen)” value was 0% in series [2] (1 mg/kg i.p.); 0% in series [2] (3 mg/kg i.p.); 0% in series [2] (10 mg/kg i.p.); 11% in series [2] (30 mg/kg i.p.); 44% in series [2] (100 mg/kg i.p.).
